The results in this text go back to US20220251081A1, “HETEROBICYCLIC INHIBITORS OF MAT2A AND METHODS OF USE FOR TREATING CANCER” (priority 2019, published 2022).

The subject of test [1] is HCT116 MTAP-/-. The test is described as follows: Inhibition of cellular proliferation, 4 days, Cell Titer Glo, HCT116 MTAP-/-. In kind it is cell-based. The conditions noted are these: Homo sapiens, HCT-116, 96 h, IC50 score, read-out: 4 Day Relative Growth Inhibition (MTAP −/−). As for the experimental part:
(§1) Assay for Inhibition of Cellular Proliferation
(§2) Test compound impact on cancer cell growth was assessed by treating cancer cells with compound for 4 days and then measuring proliferation using an ATP-based cell proliferation readout (Cell Titer Glo, Promega Corporation).
(§3) In a typical assay an isogenic pair of HCT116 human colon carcinoma cell lines which vary only in MTAP deletion status (HCT116 MTAP +/+ and HCT116 MTAP−/−) were plated in 96-well dishes at appropriate cell density. Following 24 hours, cells were then treated with the candidate MAT2A inhibitor. Prior to addition to cells, the compound was first serially diluted in 100% DMSO, typically as a 3-fold serial dilution starting at 500× top dose with 10 dose points including DMSO only control. Compound was then transferred to a working stock plate in cell culture media by adding 5 μL of compound in DMSO to 495 μL of cell culture media. This working stock was then added to cells via a further 5-fold dilution, by adding 25 μL of working stock to 100 μL of cells in culture media. Following compound addition, cells were incubated at 37° C./5% C02 for 4 days.
(§4) To measure inhibition of cellular proliferation, cells were allowed to equilibrate to room temperature for 30 minutes, and were then treated with 125 μL of Cell Titer Glo reagent. The plate was then covered with aluminum foil and shaken for 15 minutes to ensure complete mixing and full cell lysis. Luminescent signal was then measured using a plate-based luminometer Veritas version 1.9.2 using ATP standard curve to confirm assay reproducibility from run to run. This luminescence measure was converted to a proliferation index by subtracting from each data point the ATP luminescence signal measured from a bank (no cells) well and dividing by the ATP luminescence signal measured in 0.2% DMSO control well adjusted for signal in blank well. Compound activity was then represented as a percentage change in proliferation relative to a within-plate DMSO control against log 10 of compound concentration in molar (M) units.

For test [2], the system named is HCT116 MTAP +/+. The test is described as follows: Inhibition of cellular proliferation, 4 days, Cell Titer Glo, HCT116 MTAP+/+. The format is cell-based. The note with it: Homo sapiens, HCT-116, 96 h, IC50 score, read-out: 4 Day Relative Growth Inhibition (MTAP +/+). As for the experimental part: as §1, §2, §3, §4
Test [3] concerns the target T1, MAT2A homodimer (Homo sapiens, UniProt P31153).
T1 construct: inferred from Ni sepharose purification and imidazole elution; made in house; host or cells: Sf9 insect cells, recombinant baculovirus (Bac to Bac, pFASTBAC1 vector)
The test is described as follows: Biochemical assay: inhibition of recombinant MAT2A homodimer (phosphate release, PiColorLock Gold). The note with it: MAT2A IC50 score; read-out: Enzyme Inhibition. The procedure:
Mat2A protein was expressed by recombinant baculovirus in SF9 infected cells using the Bac to Bac system cloned into the pFASTBAC1 vector (Invitrogen, Carlsbad, Calif.). Recombinant MAT2A was isolated from the cell lysate of 150 g of infected cells using HP Ni sepharose column chromatography. Recombinant MAT2A homodimer was eluted with 250 and 500 mM imidazole, and fractions containing MAT2A were identified by sodium dodecyl sulfate polyacrylamide gel electrophoresis and pooled.
For determination of the inhibitory potency of compounds against the MAT2A homodimer, protein was diluted to 4 μg/mL in assay buffer (50 mM Tris, pH 8.0, 50 mM KCl, 15 mM MgCl2, 0.3 mM EDTA, 0.005% [w/v] bovine serum albumin [BSA]). Test compound was prepared in 100% dimethyl sulfoxide (DMSO) at 50× the desired final concentration. A 1 μL volume of compound dilution was added to 40 μL of enzyme dilution and the mixture was allowed to equilibrate for 60 minutes at 25° C. The enzymatic assay was initiated by the addition of 10 μL of substrate mix (500 μM ATP, pH 7.0, 40 μM L-methionine in 1× assay buffer), and the mixture was incubated for a further 60 minutes at 25° C. The reaction was halted and the liberated phosphate released by the enzyme in stoichiometric amounts by the production of S-adenosyl methionine (SAM) was measured using the PiColorLock Gold kit (Innova Biosciences, UK). Absolute product amounts were determined by comparison to a standard curve of potassium phosphate buffer, pH 8.0.

The subject of test [4] is SAM in HCT116 human colon carcinoma cell line with deleted MTAP gene. The test is described as follows: Cellular assay of target engagement (SAM): SAM level by LC-MS/MS after 72 hrs. The note with it: HCT-116, IC50 score, read-out: Cell 72 h SAM Inhibition (MTAP −/−). In kind it is cell-based. As for the experimental part: Cellular Assay of Target Engagement (SAM)
Measurement of MAT2A activity in cells was made by direct quantitation of the abundance of the product of its enzymatic activity, SAM. Cancer cells were treated with candidate MAT2A inhibitors for a suitable incubation period, and the cells were then lysed using a reagent which quenched any further enzyme activity. Soluble metabolites including SAM were collected and SAM itself was directly measured from the lysate using quantitative LC-MS/MS.
A typical assay was performed using an HCT116 human colon carcinoma cell line which was genetically engineered to delete the MTAP gene (commercially available from Horizon Discovery). This cell line was utilized because it was determined that loss of the MTAP gene predicts sensitivity to MAT2A inhibitors. Cells were plated in 96-well dishes at appropriate cell density. Following 24 hours, cells were then treated with the candidate MAT2A inhibitor. Prior to addition to cells, the compound was first serially diluted in 100% DMSO, typically as a 3-fold serial dilution starting at 500× top dose with 10 dose points including DMSO only control. Compound was then transferred to a working stock plate in cell culture media by adding 5 μL of compound in DMSO to 495 μL of cell culture media. This working stock was then added to cells via a further 5-fold dilution, by adding 25 μL of working stock to 100 μL of cells in culture media. Following compound addition, cells were incubated at 37° C./5% CO2 for 72 hrs.
To quantitate SAM levels following compound treatment, cells were gently washed once in ammonium carbonate buffer (75 mM at pH 7.4), placed on dry ice, and lysed with metabolite extraction buffer (80% cold methanol and 20% water (v/v) with acetic acid at 1M final concentration with 200 ng/mL deuterated d3-SAM as internal control). Following centrifugation at 4° C. at 3,200 rpm for 30 minutes, the supernatant was collected and stored at −80° C. until analysis by Liquid Chromatography with tandem Mass Spectrometry (LC-MS/MS). LC-MS/MS analysis was performed using an API6500 Mass Spectrometer (Sciex, Framingham, Mass., USA) operating in positive ion spray mode and equipped with a Waters UPLC Acquity (Waters, Milford, Mass., USA) BEH Amide column. Multiple Reaction Monitoring data was acquired for SAM and the d3-SAM standard, using a mass transition pair at m/z 399.2→250.1 and 402.2→250.1, respectively. In a typical LC-MS/MS analysis, the initial flow rate was 0.5 ml/min of 25% mobile phase A (acetonitrile and water at 5:95 (v/v) with 1% formic acid and 10 mM ammonium acetate) and 75% mobile phase B (acetonitrile and water at 95:5 (v/v) with 1% formic acid and 10 mM ammonium acetate), 0.2-0.5 minutes with 75%-35% mobile phase B, 25%-65% mobile phase A, at 0.5 min 65% mobile phase A and 35% mobile phase B, 1.0-1.1 minutes with 35%-75% mobile phase B, 65%-25% mobile phase A, at 1.1 min 25% mobile phase A and 75% mobile phase B with a total run time of 1.5 minutes.

T1 sequence (P31153 whole entry): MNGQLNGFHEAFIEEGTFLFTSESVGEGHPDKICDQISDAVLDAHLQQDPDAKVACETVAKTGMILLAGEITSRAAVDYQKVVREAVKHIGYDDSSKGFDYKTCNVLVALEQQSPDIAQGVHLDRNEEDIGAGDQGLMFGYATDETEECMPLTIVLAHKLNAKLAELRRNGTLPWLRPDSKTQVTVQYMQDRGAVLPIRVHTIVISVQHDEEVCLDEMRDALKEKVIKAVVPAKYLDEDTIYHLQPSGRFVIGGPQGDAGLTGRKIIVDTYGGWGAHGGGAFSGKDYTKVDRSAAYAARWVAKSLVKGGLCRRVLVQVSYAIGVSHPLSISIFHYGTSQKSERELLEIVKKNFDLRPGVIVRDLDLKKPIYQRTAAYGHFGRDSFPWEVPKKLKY

As to `[2H]C([2H])([2H])Oc1ccc(-n2c(=O)c(-c3ccc4nn(C)cc4c3)cc3ncc(OCC)nc32)cc1` [Example 342], the IC50 in test [1] was less than 100 nM; in test [2], 100 to 1000 nM; in test [3] it was less than 100 nM; in test [4], less than 100 nM.
`[2H]C([2H])([2H])Oc1ccc(-n2c(=O)c(-c3ccc4nn(C)cc4c3)cc3ccc(OC(C)C)nc32)cc1` [Example 322]: the IC50 in test [1] is less than 100 nM; in test [2] it was not below 1000 nM; in test [3], less than 100 nM; in test [4] it was less than 100 nM.
Take `COc1ccc(-n2c(=O)c(-c3ccc4ncccc4c3)cc3cnc(NCC(F)(F)F)nc32)cc1` [Example 116]: the IC50 in test [1] was less than 100 nM; in test [2] it was not below 1000 nM; in test [3], less than 100 nM; in test [4], less than 100 nM.
Consider `CCOc1ccc2cc(-c3ccc4nn(C)cc4c3)c(=O)n(-c3ccc(OC)cc3)c2n1` [Example 142], for which the IC50 in test [1] was less than 100 nM; in test [2], not below 1000 nM; in test [3], less than 100 nM; in test [4] it was less than 100 nM.
Regarding `CCCc1ccc2cc(-c3ccc4nn(C)cc4c3)c(=O)n(-c3ccc(Cl)cc3)c2n1` [Example 236, 1-(4-chlorophenyl)-3-(2-methyl-2H-indazol-5-yl)-7-propyl-1,8-naphthyridin-2(1H)-one], the IC50 in test [1] was less than 100 nM; in test [2], not below 1000 nM; in test [3] it was less than 100 nM; in test [4] it was less than 100 nM.
For the compound `CCNc1ccc(-n2c(=O)c(-c3ccc4nn(C)cc4c3)cc3ccc(OCC)nc32)cn1` [Example 145], the IC50 in test [1] was less than 100 nM; in test [2], not below 1000 nM; in test [3] it was less than 100 nM; in test [4], less than 100 nM.
On to `CCOc1ccc2cc(-c3ccc4nncn4c3)c(=O)n(-c3ccc(OC(F)(F)F)cc3)c2n1` [Example 219], for which the IC50 in test [1] is 100 to 1000 nM; in test [2], not below 1000 nM; in test [3], less than 100 nM; in test [4] it was less than 100 nM.
With `[2H]C([2H])([2H])Oc1ccc(-n2c(=O)c(-c3ccc4nn(C)cc4c3)cc3ncc(OCC(F)(F)F)nc32)cc1` [Example 345], the IC50 in test [1] is 100 to 1000 nM; in test [2], not below 1000 nM; in test [3], less than 100 nM; in test [4] it was less than 100 nM.
`Cn1cc2cc(-c3cc4ccc(OCC(F)F)nc4n(-c4ccc(Cl)cc4)c3=O)ccc2n1` [Example 122]: the IC50 in test [1] was less than 100 nM; in test [2], 100 to 1000 nM; in test [3], less than 100 nM; in test [4] it was less than 100 nM.
For the compound `CCOc1ccc2cc(-c3ccc4nn(C)nc4c3)c(=O)n(-c3ccc(Cl)cc3)c2n1` [Example 201], the IC50 in test [1] was less than 100 nM; in test [2] it was not below 1000 nM; in test [3], less than 100 nM; in test [4], less than 100 nM.
With `CCOc1ccc2cc(-c3ccc4nncn4c3)c(=O)n(-c3ccc(OC)cc3)c2n1` [Example 217], the IC50 in test [1] is less than 100 nM; in test [2], not below 1000 nM; in test [3], less than 100 nM; in test [4], less than 100 nM.
`COc1ccc(-n2c(=O)c(-c3ccc4nn(CCO)cc4c3)nc3ccc(OCC(F)(F)F)nc32)cc1` [Example 335, 2-(2-(2-hydroxyethyl)-2H-indazol-5-yl)-4-(4-methoxyphenyl)-6-(2,2,2-trifluoroethoxy)pyrido[2,3-b]pyrazin-3(4H)-one]: the IC50 in test [1] was less than 100 nM; in test [2], not below 1000 nM; in test [3], less than 100 nM; in test [4], less than 100 nM.
Regarding `CCNc1ccc2cc(-c3ccc4nn(C)cc4c3)c(=O)n(-c3ccc(Cl)cc3)c2n1` [Example 310], the IC50 was less than 100 nM in test [1], 100 to 1000 nM in test [2], less than 100 nM in test [3] and less than 100 nM in test [4].
Turning to `CCNc1ccc2nc(-c3ccc4nn(C)cc4c3)c(=O)n(-c3ccc(OC)cc3)c2n1` [Example 341], the IC50 in test [1] is less than 100 nM; in test [2], not below 1000 nM; in test [3] it was less than 100 nM; in test [4], less than 100 nM.
Turning to `CCOc1ccc2cc(-c3ccc(=O)n(C)c3)c(=O)n(-c3ccc(Cl)cc3)c2n1` [Example 199], the IC50 is 100 to 1000 nM in test [1], not below 1000 nM in test [2], less than 100 nM in test [3] and less than 100 nM in test [4].
Consider `CCOc1ccc2nc(-c3ccc4nn(C)cc4c3)c(=O)n(-c3ccc(Cl)cc3)c2n1` [Example 222, 4-(4-chlorophenyl)-6-ethoxy-2-(2-methyl-2H-indazol-5-yl)pyrido[2,3-b]pyrazin-3(4H)-one], for which the IC50 in test [1] was less than 100 nM; in test [2], not below 1000 nM; in test [3], less than 100 nM; in test [4], less than 100 nM.
Take `CCOc1ccc2cc(-c3ccc4ncccc4c3)c(=O)n(-c3ccc(Cl)cc3)c2n1` [Example 160]: the IC50 was 100 to 1000 nM in test [1], not below 1000 nM in test [2], less than 100 nM in test [3] and less than 100 nM in test [4].
As to `[2H]C([2H])([2H])Oc1ccc(-n2c(=O)c(-c3ccc4nn(C)cc4c3)cc3ccc(O[C@H](C)C(F)(F)F)nc32)cc1` [Example 304], the IC50 in test [3] and in test [4] was less than 100 nM throughout.
As to `CCOc1ccc2cc(-c3ccc4nncn4c3)c(=O)n(-c3ccc(C4CC4)nc3)c2n1` [Example 215], the IC50 in test [1], in test [3] and in test [4] was less than 100 nM in each case.
